Values joined by “and” are separate entries in the source; they are usually repeats but may differ in a detail not shown here. Equal values may be shown once. Read-outs that look alike come from different tables or passages of the source.
Assays:
Huh-7 HCV replicon cells = assay: CC50 assay in Huh-7 HCV replicon cells (CellTiter-Glo); format: cell-based, human; conditions: 3 days, 50% cytostatic concentration
Description: (§1) The anti-HCV activity of the pyrido[3,2-d]pyrimidine derivatives of this invention was tested in a human hepatoma Huh-7 cell line harbouring a HCV replicon. The assay comprised the following steps:
(§2) Step 1: Compound Preparation and Serial Dilution
(§3) • 1. for water soluble pyrido[3,2-d]pyrimidine derivatives, a volume of 500 μL of solution in cell media (DMEM, 10% FBS, P/S, L-Glutamine) was prepared with a concentration being twice the concentration of the starting final serial dilution concentration. […] The rest of the plate, columns 2-12, was filled with 100 μL of cell media. The plate was then placed on a Precision 2000 Workstation to start the serial dilution. Compounds were diluted three times each step from column 1 to column 10. Column 11 was used as a blank control (no compound added). • 2. for pyrido[3,2-d]pyrimidine derivatives requiring DMSO to dissolve, serial dilution is performed in 50% DMSO in a 384-well plate. A solution containing a compound at 100-fold concentration of the starting final serial dilution concentration was prepared in 50% DMSO and added to the pre-specified wells in column 1 of a polypropylene 384-well plate. The plate was then placed on a Precision 2000 Workstation to start the serial dilution. After the serial dilution, a volume of 2 μL of the solution was transferred from the 384-well plate to a 96-well cell culture plate containing 100 μL of cell media on a Biomek FX Workstation. The DMSO concentration in the final assay condition was 0.5% after cells are added to the plate and the total volume in each well is brought to 200 μL. Step 2: to each well of the serial dilution plate prepared above, 100 μL of cell media containing 6000 suspended Huh-7 HCV replicon cells was added with a Multidrop workstation. The plates were incubated for 3 days at 37° C. with 5% CO2. Step 3: Detection: • a) for the EC50 assay, the media in a 96-well cell culture plate was aspirated with a Biotek EL405 plate-washer. A volume of 200 μL of a solution containing a 1:1 mixture of cell-lysis buffer (Promega, Luciferase Cell Culture Lysis 5× Reagent, cat. #E1531) and luciferase substrate solution (Promega, Luciferase Assay, cat. #E4550) was added to each well of the plate with Multidrop.
(§4) Results in table 7 are expressed by the following data: • the 50% effective concentration (EC50), i.e. the concentration that protects 50% of the cell monolayer from virus-induced cythopathic effect, and • the 50% cytostatic concentration (CC50), i.e. the concentration that results in 50% inhibition of cell growth. Table 7 further indicates the nature of substituents being present in positions 2, 4 and 6 of the pyrido[3,2-d]pyrimidine derivatives of the invention.

HCV replicon = assay: Anti-HCV assay / replicon assay (EC50, luciferase read-out); format: cell-based, hepatitis C virus (HCV); conditions: for CC50/EC50: CC50/EC50 ratio (selectivity index)
Description: as §1, §2, §3, §4

[1] = human hepatoma Huh-7 cell line harbouring a HCV replicon, 3 days, luciferase luminescence, read-out: EC50
[2] = Hepatitis C virus, 72 h, human hepatoma Huh-7 cell line harbouring a HCV replicon, 3 days, luciferase luminescence, read-out: EC50

| Molecule | CC50 (Huh-7 HCV replicon cells) | CC50/EC50 (HCV replicon) | EC50 (HCV replicon; [1]) [nM] | EC50 (HCV replicon; [2]) [nM] | EC50 (HCV replicon; Hepatitis C virus, Huh-7, 72 h) [nM] |
| --- | --- | --- | --- | --- | --- |
| Cc1cccc(NC(=O)N2CCN(c3nc(N)nc4ccc(-c5ccccc5)nc34)CC2)c1 [Example 389, 2-amino-4-[N-(3-methyl-phenyl-carbamoyl)-piperazin-1-yl]-6-phenyl-pyrido[3,2-d]pyrimidine] | 4200 nM | 200 | 21 |  |  |
| CCOc1nc(N)nc2ccc(-c3cccs3)nc12 [Example 467, 4-Ethoxy-6-thiophen-2-yl-pyrido[3,2-d]pyrimidin-2-ylamine] | 50100 nM | 113 |  | 443 |  |
| COc1ccc(-c2ccc3nc(N)nc(N4CCN(C(=O)COc5ccccc5)CC4)c3n2)cc1OC [Example 65, 2-amino-4[(N-phenoxy-acetyl)-piperazin-1-yl]-6-(3,4-dimethoxyphenyl)-pyrido[3,2-d]pyrimidine] | 25100 nM | 90 | 280 |  |  |
| Cc1cccc(NC(=O)N2CCN(c3nc(N)nc4ccc(-c5ccc(F)cc5)nc34)CC2)c1 [Example 390, 2-amino-4-[N-(3-methylphenyl-carbamoyl)-piperazin-1-yl]-6-(4-fluorophenyl)-pyrido[3,2-d]pyrimidine] | 3500 nM | 575 | 6 |  |  |
| COc1ccc(-c2ccc3nc(C)nc(N4CCN(C(=O)Nc5cccc(C)c5)CC4)c3n2)cc1OC [Example 11] | 7300 nM | 98 | 75 |  |  |
| Cc1ccc(-c2ccc3ncnc(N4CCN(C(=O)Nc5cccc(Cl)c5)CC4)c3n2)cc1C [Example 84] | 21800 nM | 167 | 130 |  |  |
| CCOc1nc(N)nc2ccc(-c3ccc(OC)c(OC)c3)nc12 [Example 307, 2-amino-4-ethoxy-6-(3,4-dimethoxy)pyrido[3,2-d]pyrimidine] | 50100 nM | 264 | 190 |  |  |
| COc1ccc(-c2ccc3nc(N)nc(Nc4ccc5c(c4)OCO5)c3n2)cc1OC [Example 33, 2-amino-4-[3,4-(methylenedioxy)aniline]-6-(3,4-dimethoxyphenyl)pyrido[3,2-d]pyrimidine] | 4800 nM | 636 | 8 |  |  |
| Nc1nc(N2CCN(C(=O)COc3ccc(Cl)cc3)CC2)c2nc(-c3ccncc3)ccc2n1 [Example 386, 2-amino-4-[N-(4-chlorophenoxyacetyl)piperazin-1-yl]-6-(pyridin-4-yl)pyrido-[3,2-d]pyrimidine] | 6000 nM | 4585 | 1 |  |  |
| Cc1cccc(NC(=O)N2CCN(c3nc(N)nc4ccc(-c5ccc6c(c5)OCCO6)nc34)CC2)c1 [Example 192, 2-amino-4-[N-(3-methyl-phenyl-carbamoyl)-piperazin-1-yl]-6-(1,4-benzodioxane)-pyrido[3,2-d]pyrimidine] | 690 nM | 147 | 5 |  |  |
| Nc1nc(N2CCN(C(=O)COc3ccc(Cl)cc3)CC2)c2nc(-c3ccc4c(c3)OCCO4)ccc2n1 [Example 189, 2-amino-4-[N-(4-chlorophenoxy-acetyl)-piperazin-1-yl]-6-(1,4-benzodioxane)-pyrido[3,2-d]pyrimidine] | 430 nM | 50 | 9 |  |  |
| 4-ethoxy-6-(4-methoxy-phenyl)-pyrido[3,2-d]pyrimidin-2-ylamine [Example 461] | 25100 nM | 93 | 270 |  |  |
| Nc1nc(N2CCN(C(=O)COc3ccc(Cl)cc3)CC2)c2nc(-c3cccc(Cl)c3)ccc2n1 [Example 385, 2-amino-4-[N-(4-chlorophenoxyacetyl)piperazin-1-yl]-6-(3-chlorophenyl)pyrido-[3,2-d]pyrimidine] | 7400 nM | 122 | 61 |  |  |
| COc1ccc(-c2ccc3nc(N)nc(Nc4cccc(C)c4)c3n2)cc1OC [Example 32, 2-amino-4-(3-methyl-anilino)-6-(3,4-dimethoxyphenyl)-pyrido[3,2-d]pyrimidine] | 50100 nM | 195 |  | 258 |  |
| N#Cc1ccc(-c2ccc3nc(N)nc(N4CCN(C(=O)COc5ccc(Cl)cc5)CC4)c3n2)cc1 [Example 378, 2-amino-4-[N-(4-chlorophenoxyacetyl)piperazin-1-yl]-6-(4-cyanophenyl)pyrido-[3,2-d]pyrimidine] | 4300 nM | 571 | 8 |  |  |
| COc1cc(-c2ccc3ncnc(N4CCN(C(=O)Nc5cccc(Cl)c5)CC4)c3n2)ccc1OC(C)C [Example 124] | 2500 nM | 71 | 35 |  |  |
| 2-amino-4-[N-3-chloro-phenyl-carbamoyl)-piperazin-1-yl]-6-(3,4-(methylenedioxy)phenyl)pyrido[3,2-d]pyrimidine [Example 173] | 3400 nM | 143 | 24 |  |  |
| CCOc1ccc(-c2ccc3ncnc(N4CCN(C(=O)Nc5cccc(Cl)c5)CC4)c3n2)cc1Cl [Example 86] | 25100 nM | 100 | 250 |  |  |
| 2-amino-4-[(N-3-chloro-phenyl-carbamoyl)-piperazin-1-yl]-6-(3-fluoro-4-ethoxyphenyl)pyrido-[3,2-d]pyrimidine [Example 171] | 1500 nM | 101 | 15 |  |  |
| 4-[(N-4-chloro-phenylcarbamoyl)-piperazin-1-yl]-6-(3-methyl-4-methoxyphenyl)-pyrido[3,2-d]pyrimidine [Example 121] | 19400 nM | 162 | 120 |  |  |
| O=C(Nc1cccc(Cl)c1)N1CCN(c2ncnc3ccc(-c4ccc5c(c4)OCO5)nc23)CC1 [Example 85, 4-[(N-3-chlorophenylcarbamoyl)-piperazin-1-yl]-6-(3,4-methylenedioxy)phenyl-pyrido[3,2-d]pyrimidine] | 1200 nM | 64 | 19 |  |  |
| COc1ccc(-c2ccc3nc(N)nc(NCCN4CCOCC4)c3n2)cc1OC [Example 38, 2-amino-4-[4-(2-aminoethyl)morpholino]-6-(3,4-dimethoxyphenyl)-pyrido[3,2-d]pyrimidine] | 7100 nM | 151 | 47 |  |  |
| Nc1nc(N2CCN(C(=O)COc3ccc(Cl)cc3)CC2)c2nc(-c3ccc(F)c(Cl)c3)ccc2n1 [Example 387, 2-amino-4-[N-(4-chlorophenoxyacetyl)piperazin-1-yl]-6-(3-chloro-4-fluorophenyl)-pyrido-[3,2-d]pyrimidine] | 5900 nM | 280 | 21 |  |  |
| CSc1nc(N)nc2ccc(-c3ccc(F)cc3)nc12 [Example 392, 2-amino-4-thiomethyl-6-(4-fluorophenyl)-pyrido(3,2-d)pyrimidine] | 25100 nM | 512 | 49 |  |  |
| Nc1nc(N2CCN(C(=O)COc3ccc(Cl)cc3)CC2)c2nc(-c3ccc(Cl)cc3)ccc2n1 [Example 384, 2-amino-4-[N-(4-chlorophenoxyacetyl)piperazin-1-yl]-6-(4-chlorophenyl)pyrido-[3,2-d]pyrimidine] | 12200 nM and 7900 nM | 231 and 148 | 53 |  |  |
| COc1ccc(-c2ccc3nc(N)nc(N4CCN(c5ccccn5)CC4)c3n2)cc1OC [Example 52, 2-amino-4-(2-pyridyl-piperazin-1-yl)-6-(3,4-dimethoxyphenyl)-pyrido[3,2-d]pyrimidine] | 3000 nM | 72 | 42 |  |  |
| COc1ccc(-c2ccc3nc(Cl)nc(N4CCN(C(=O)Nc5cccc(C)c5)CC4)c3n2)cc1OC [Example 14] | 25100 nM | 167 | 150 |  |  |
| CCOc1nc(NC(C)=O)nc2ccc(-c3ccc(F)cc3)nc12 [NHCOMe/OEt/(4-F)Ph] | 25100 nM | 170 | 148 |  |  |
| CCCCCOc1nc(N)nc2ccc(-c3ccccc3F)nc12 [Example 297, 2-amino-4-n-pentyloxy-6-(o-fluorophenyl)pyrido[3,2-d]-pyrimidine] | 50100 nM | 66 |  | 760 |  |
| CCOc1nc(N)nc2ccc(-c3ccc(N)cc3)nc12 [Example 465, 6-(4-amino-phenyl)-4-ethoxy-pyrido[3,2-d]pyrimidin-2-ylamine] | 50100 nM | 145 |  |  | 346 |
